Ends that are not written are not given here. * marks the point of attachment. X1 = 2,3‑bis(palmitoyloxy)‑(2RS)‑propyl, CCCCCCCCCCCCCCCC(=O)OCC(C*)OC(=O)CCCCCCCCCCCCCCC; Palmitoyl = CCCCCCCCCCCCCCCC(=O)*
What was measured:
Type in all cases: in vivo
[1] = test system: CD36; assay: Liver CD36 expression by qRT-PCR in high-fat diet mice; details: HFD mice; 10 μg/kg IP every other day for two weeks; liver total RNA, qRT-PCR (FIG. 3B)
Method: (§1) Referring to FIGS. 3A-3B, 8-10 weeks-old male mice (n−20) were fed a high-fat diet (60% fat). […] These mice were randomly divided into 2 groups. Mice in Group 1 (n=10) received injections of 0.9% normal saline (vehicle) every other day for a duration of two weeks. Mice in Group 2 (n=10) received injections of Pam3CSK4 (SEQ ID NO: 1) (drug:10 μg/kg; IP) every other day for a duration of two weeks. Throughout the treatment period, mice were kept on a high-fat diet. Total RNA was extracted from livers and expression of PPAR-γ (FIG. 3A) and CD36 (FIG. 3B) was determined by qRT-PCR. Data presents as mean±SD.

[2] = test system: PPAR-γ; assay: Liver PPAR-γ expression by qRT-PCR in high-fat diet mice; details: HFD mice; 10 μg/kg IP every other day for two weeks; liver total RNA, qRT-PCR (FIG. 3A)
Method: as §1

[3] = test system: C57BL/6 mice on high-fat diet (impaired glucose homeostasis); assay: Fasting blood glucose in high-fat diet mice; details: HFD mice; 10 μg/kg IP every other day for two weeks; compared to vehicle (FIG. 2)
Method: (§2) In the experiment, 8-10 weeks-old male mice (n−20) were fed a high-fat diet (60% fat). […] These mice were randomly divided into 2 groups. Mice in Group 1(n−10) received injections of 0.9% normal saline (vehicle) every other day for a duration of two weeks. Mice in Group 2 (n−10) received injections of Pam3CSK4 (SEQ ID NO: 1) (drug:10 μg/kg; IP) every other day for a duration of two weeks. Throughout the treatment period, mice were kept on a high-fat diet. A) Liver sections of the mice were stained with H&E. Referring to FIG. 2, fasting blood glucose was reduced in the mice treated with Pam3CSK4 (SEQ ID NO: 1) compared to mice treated with a vehicle. […] By non-limiting example, a vehicle may be saline, a sugar water solution, or other similar substances that may be injected without affecting the subject directly. Data is presented as mean±SD.

[4] = test system: C57BL/6 mice on high-fat diet (liver steatosis); assay: Liver section histology (H&E) in high-fat diet mice with liver steatosis; details: obese HFD mice with steatosis, 10 μg/kg IP every other day for two weeks
Method: as §2

**Q.** How did the “CD36 expression in the liver” value [1] turn out when “Pam3CysSerLys4 (Palmitoyl-C(X1)SKKKK) [Pam3CSK4, a synthetic triacylated lipopeptide (LP) and a TLR2/TLR1 ligand]” was run?
**A.** Its value is “suppressed”.

**Q.** What about the “PPAR-γ expression in the liver” value [2] of the same substance?
**A.** The value was “suppressed”.

**Q.** And the “fasting blood glucose (FBG)” value [3]?
**A.** Its value is “reduced”.

**Q.** And the “normal liver without any fat in treated mice” value [4]?
**A.** The value was 100%.

**Q.** And the hepatic fat accumulation ([4]; vs vehicle)?
**A.** Its hepatic fat accumulation is “effectively reduces hepatic fat accumulation”.

Source: patent US12502416B1, “PAM3CSK4 injection for the prevention and management of MASLD” (DASMAN DIABETES INSTITUTE, priority 2025, dated 2025)
